We go through ten substances from patent US20110268789A1, “USE OF PITUITARY ADENYLATE CYCLASE-ACTIVATING POLYPEPTIDE (PACAP) AND PACAP ANALOGS AS ADJUNCTIVE TREATMENTS WITH ANTICANCER AGENTS” (priority 2008, published 2011).

Square brackets hold non-standard residues; d marks the D form. Ends that are not written are not given here.

Data set [1] deals with HK-2 human kidney cells. The experiment in a line: Doxorubicin-induced apoptotic cell death of human renal proximal tubule epithelial cells. It is filed as cell-based. The settings on record: HK-2 cells, peptide added to the medium, FIG. 11. The protocol:
The HK-2 human kidney cells were cultured in Keratinocyte-Serum Free Medium supplemented with recombinant epidermal growth factor and bovine pituitary extract. […] Each value represents the mean plus/minus the standard deviation of four determinations in three replicate experiments. **p<0.01 and *p<0.05 compared to the doxorubicin-treated (control) cells.
At the highest dose tested (10^−6 M), all three peptides reduced the apoptotic cell death of these epithelial cells by more than 60%.

The next data set relates to L-132 human lung cells. As to the kind of experiment: Bleomycin-induced apoptotic cell death of human pulmonary epithelial cells. Format: cell-based. The settings on record: L-132 cells, peptide added to the medium, FIG. 12. The procedure: The L-132 human lung cells were cultured in Eagle's Minimum Essential Medium supplemented with 10% fetal bovine serum. […] Each value represents the mean plus/minus the standard deviation of four determinations in three replicate experiments. **p<0.01 and *p<0.05 compared to the bleomycin-treated (control) cells.
At the highest dose tested (10^−6 M), all three peptides reduced the apoptotic cell death of these epithelial cells by more than 60%. […] Therefore, pre- and/or post-treatment of subjects undergoing bleomycin-based cancer chemotherapy with therapeutic doses of PACAP38 and/or PACAP analogs should result in a higher maximal tolerable dose of bleomycin, and an increased frequency of partial clinical responses and/or an increased number of complete remissions.

Data set [2] deals with PC-12 rat pheochromocytoma cells. The experiment in a line: Cisplatin-induced apoptotic cell death of pheochromocytoma cells. To be noted: PC-12 cells. It is filed as cell-based. The procedure:
The PC-12 rat pheochromocytoma cells were cultured in F-12K medium supplemented with 15% horse serum and 2.5% fetal bovine serum. The dose-dependent inhibitory effects of PACAP38 and the PACAP38 analogs on apoptotic cell death were assessed by the quantitative determination of cytoplasmic histone-associated DNA-fragmentation (mono- and oligonucleosomes) after exposure to cisplatin for 24 hours. Each value represents the mean plus/minus the standard error of four determinations. **p<0.01 and *p<0.05 compared to the cisplatin-treated (control) cells.

The next data set concerns Male C57BL/6 mice. As to the kind of experiment: Cisplatin-induced nephrotoxicity in mice. Format: in vivo, mouse. To be noted: cisplatin 20 mg/kg i.p., FIG. 10. The procedure:
(§1) Male C57BL/6 mice were given a single intraperitoneal injection of 20 mg/kg of cisplatin. Twenty nanomoles of PACAP38 were given intraperitoneally 1 hour before the injection of cisplatin and additional doses were given at 24 and 48 hours after the initial dose. The control group of mice was injected intraperitoneally with the same volume of saline as for the injections of cisplatin and PACAP38 on the same schedule. The mice were euthanized 24 hours after the final injection of PACAP38. Each value represents the mean plus/minus the standard error of four determinations. ***p<0.001 and **p<0.01 compared to the group treated only with cisplatin.
as §1, with “PACAP38. TNF-α was extracted from one kidney of each mouse and quantified with an enzyme-linked immunosorbent assay.” for “PACAP38.”
Male C57BL/6 mice were given a single intraperitoneal injection of 20 mg/kg of cisplatin. Twenty nanomoles of PACAP38 were given intraperitoneally 1 hour before the injection of cisplatin and additional doses were given at 24 and 48 hours after the initial dose. The control group of mice were injected intraperitoneally with the same volume of saline as for the injections of cisplatin and PACAP38 on the same schedule. The mice were euthanized 24 hours after the final injection of PACAP38, and the kidneys were removed and fixed in 10% formalin. The fixed sections were stained with hematoxylin and eosin. The sections of the kidneys from control mice show intact renal tubular epithelial cells and well-preserved brush border membranes. The kidneys from mice treated with cisplatin had extensive tubular damage, tubular dilations, intratubular debris, and intratubular casts. […] Tubular damage was more pronounced in the outer cortex in the cisplatin treated mice. The photomicrographs on the left side were made at a lower magnification (×160) than the photomicrographs on the right side (×320). The results described in FIGS. 5, 6, 7, and 8 were from the same experiment.
as §1, with “six” for “four”
as §1, with “The cytoprotective effect of PACAP38 against cisplatin-induced nephrotoxicity was also seen in a common in vivo model. Male” for “Male”, “PACAP38.” for “PACAP38. Each value represents the mean plus/minus the standard error of four determinations. ***p<0.001 and **p<0.01 compared to the group treated only with cisplatin.”

For data set [3], the system named is PC-3 human prostate cancer cells. To be noted: nude mice, PC-3 cells; cited from earlier work.
Data set [4] deals with NCI-H838 human non-small cell lung cancer cells. To be noted: nude mice; cited from earlier work.
Data set [5] concerns MCF-7 human breast cancer cells. To be noted: nude mice, MCF-7 cells; cited from earlier work.
Data set [6] has the same test system. As to the kind of experiment: Doxorubicin-induced apoptotic cell death of breast cancer cells. To be noted: MCF-7 cells. It is filed as cell-based. The protocol:
The MCF-7 human breast cancer cells were cultured in Eagle's Minimum Essential Medium supplemented with 10% non-inactivated fetal bovine serum and 0.05 mM 2-mercaptoethanol. The effects of PACAP38 and N-acetyl[Ala^16,17,D-Lys^38]PACAP38 on apoptotic cell death were assessed by the quantitative determination of cytoplasmic histone-associated DNA-fragmentation (mono- and oligonucleosomes) after exposure to doxorubicin for 48 hours. Each value represents the mean plus/minus the standard deviation of three determinations. **p<0.01 compared to the doxorubicin-treated (control) cells.
At the highest dose tested (10^−6 M), both peptides reduced the apoptotic cell death of these breast cancer cells by more than 50%.

For data set [7], the system named is Jurkat human T-lymphocyte leukemia cells. The experiment in a line: Etoposide-induced apoptotic cell death of leukemia cells. The settings on record: Jurkat cells. It is filed as cell-based. The procedure:
The Jurkat human T-lymphocyte leukemia cells were cultured in RPMI 1640 medium supplemented with 10% non-inactivated fetal bovine serum. The effects of PACAP27 and PACAP38 on apoptotic cell death was assessed by the quantitative determination of cytoplasmic histone-associated DNA-fragmentation (mono- and oligonucleosomes) after exposure to etoposide for 48 hours. Each value represents the mean plus/minus the standard deviation of three determinations. **p<0.01 and *p<0.05 compared to the etoposide-treated (control) cells.

The test system of data set [8] is HK-2 human kidney cells. As to the kind of experiment: Cisplatin-induced apoptotic cell death of human renal proximal tubule epithelial cells (histone-associated DNA fragmentation). It is filed as cell-based. To be noted: HK-2 cells, comparable concentrations, FIG. 4. The procedure:
The HK-2 human kidney cells were cultured in Keratinocyte-Serum Free Medium supplemented with recombinant epidermal growth factor and bovine pituitary extract. The dose-dependent inhibitory effect of PACAP38 on apoptotic cell death was assessed by the quantitative determination of cytoplasmic histone-associated DNA-fragmentation (mono- and oligonucleosomes) after exposure to cisplatin for 24 hours. Each value represents the mean plus/minus the standard error of four determinations in three replicate experiments. **p<0.01 compared to the cisplatin-treated (control) cells.
The HK-2 human kidney cells were cultured in Keratinocyte-Serum Free Medium supplemented with recombinant epidermal growth factor and bovine pituitary extract. The dose-dependent inhibitory effect of PACAP38 on apoptotic cell death was assessed by the quantitative determination of cytoplasmic histone-associated DNA-fragmentation (mono- and oligonucleosomes) after exposure to cisplatin for 24 hours. Each value represents the mean plus/minus the standard deviation of four determinations in three different experiments. **p<0.01 and *p<0.05 compared to the cisplatin-treated (control) cells.

The subject of data set [9] is light-chain immunoglobulin-secreting human myeloma cells. The experiment in a line: Doxorubicin-induced apoptotic cell death of myeloma cells. It is filed as cell-based. The procedure: The light-chain immunoglobulin-secreting human myeloma cells were cultured in RPMI 1640 medium supplemented with 10% non-inactivated fetal bovine serum and 0.05 mM 2-mercaptoethanol. The effects of PACAP38, and [Ala^16,17,D-Lys^38]PACAP38 on apoptotic cell death was assessed by the quantitative determination of cytoplasmic histone-associated DNA-fragmentation (mono- and oligonucleosomes) after exposure to doxorubicin for 48 hours. Each value represents the mean plus/minus the standard deviation of three determinations. **p<0.01 and *p<0.05 compared to the doxorubicin-treated (control) cells.
At the lowest dose tested (10^−8 M), both peptides reduced the doxorubicin-induced apoptotic cell death of these malignant plasma cells.

For data set [10] the following is noted: rat, in vivo, iv; cited from earlier work.
Data set [11] concerns rat hippocampal neuron/glia co-cultures. The settings on record: cited from earlier work.
The conditions of data set [12]: normal human volunteers and a patient with multiple myeloma; cited from earlier work.
In data set [13] the test system is light-chain immunoglobulin-secreting human myeloma cells. The experiment in a line: Carmustine-induced apoptotic cell death of myeloma cells. Format: cell-based. The protocol:
The light-chain immunoglobulin-secreting human myeloma cells were cultured in RPMI 1640 medium supplemented with 10% non-inactivated fetal bovine serum and 0.05 mM 2-mercaptoethanol. The effects of PACAP38, and [Ala^22]PACAP38 on apoptotic cell death was assessed by the quantitative determination of cytoplasmic histone-associated DNA-fragmentation (mono- and oligonucleosomes) after exposure to carmustine for 48 hours. Each value represents the mean plus/minus the standard deviation of three determinations. **p<0.01 and *p<0.05 compared to the carmustine-treated (control) cells.

Consider “[Lys^34]PACAP38 (HSDGIFTDSYSRYRKQMAVKKYLAAVLGKRYKQKVKNK; ends and bridges not checked)”, for which the “reduction in doxorubicin-induced apoptotic cell death” value with HK-2 human kidney cells [1] was “significant dose-dependent reduction”. Besides, the “reduction in bleomycin-induced apoptotic cell death” value in the data set on L-132 human lung cells was “significant dose-dependent reduction”. Also, in [2] (cisplatin 24 hours, FIG. 13), the “reduction in cisplatin-induced apoptotic cell death” value is “dose-dependent reduction”. In addition, the “reduction of cisplatin-induced apoptotic cell death” value in data set [2] (highest dose tested (10^−6 M)) is reported as “significantly reduced”.
Turning to [D-Ser^2,Lys^38-palmitoyl]PACAP38, in the data set with Male C57BL/6 mice, the “relative potency as cytoprotectants against cisplatin-induced impairment of kidney function (serum creatinine)” value is “less potent”.
In the case of “PACAP(6-38) (FTDSYSRYRKQMAVKKYLAAVLGKRYKQRVKNK; ends and bridges not checked; UniProt P18509 137-169, looked up, fragment) [a PACAP/VIP receptor antagonist]”, the growth of xenografts entry in data set [3], in [4] and in [5] was “inhibited the growth” in each case.
N-acetyl[Ala^16,17,D-Lys^38]PACAP38: the “relative potency in reducing doxorubicin-induced apoptotic cell death” value in data set [6] is “slightly more potent than PACAP38”. In data set [6] (doxorubicin 48 hours, FIG. 14), the “reduction in doxorubicin-induced apoptotic cell death” value is recorded as “dose-dependent reduction”.
As for “PACAP27 (HSDGIFTDSYSRYRKQMAVKKYLAAVL-NH2)”, in data set [7] (etoposide 48 hours, FIG. 15), the “reduction in etoposide-induced apoptotic cell death” value is on record as “small reduction”. Besides, the “significance of the reduction of etoposide-induced apoptotic cell death” value in [7] (highest dose tested 10^−6 M) was “did not have a significant effect”.
Consider [Aib^2]PACAP38, for which the “relative effectiveness as protectants against cisplatin-induced apoptotic cell death” value in the data set on HK-2 human kidney cells [8] was “similarly effective”.
Turning to “[Ala^16,Ala^17,D-Lys^38]PACAP38 (HSDGIFTDSYSRYRKAAAVKKYLAAVLGKRYKQRVKN[dK]; ends and bridges not checked) [[Ala^16,17,D-Lys^38]PACAP38]”, the “effect on doxorubicin-induced apoptotic cell death (dose-response)” value in data set [9] (doxorubicin 48 hours, FIG. 16) is “biphasic dose-response effect”. For the same substance, the “effect on doxorubicin-induced apoptotic cell death” value was “small, but not significant, enhancement” in [9] (highest dose tested (10^−6 M)) and “reduced” in [9] (lowest dose tested (10^−8 M)).
For the substance [^125I]-PACAP38, the “half-life in the bloodstream” value in [10] is 5 to 6 min.
“pituitary adenylate cyclase-activating polypeptide [PACAP]”: in data set [11], the “peak of bimodal dose-response curve for prevention of gp120-induced neuronal death (lower peak)” value is listed as 10^−13 M and the “peak of bimodal dose-response curve for prevention of gp120-induced neuronal death (upper peak)” value is 10^−10 M. For the same substance, in data set [12], the untoward effect reported result is given as “transient flushing”.
As to “[Ala^22]PACAP38 (HSDGIFTDSYSRYRKQMAVKKALAAVLGKRYKQRVKNK; ends and bridges not checked)”, the “effect on carmustine-induced apoptotic cell death” value in data set [13] (carmustine 48 hours, FIG. 17) is “enhancement”; in data set [13] (highest dose tested (10^−6 M)) it was “significantly enhanced”.
